Holding throughout (format): biochemical
In test [1] the target is T1, α-glucosidase (Saccharomyces cerevisiae, Sigma G5003).
T1 construct: gene MAL12; commercial yeast enzyme preparation (Sigma)
Kind of test: p-nitrophenol release at […] nm, progress curves at several PNPG and inhibitor concentrations. Conditions: PNPG 1-15 mM, pH 7.4, 37 °C, unreliable: b44 prints another KI, Ki unit not printed (doses in μM).

For test [2] the target is unchanged. Kind of test: p-nitrophenol release at […] nm, microplate. The settings on record: PNPG (20 μL of 5 mM), PBS pH 7.4, 37 °C, 5 min pre-incubation; error is SE; read-out: α-Glucosidase IC50 (SE) (mg/mL, μM†).
The subject of test [3] is T1, α-glucosidase (Saccharomyces cerevisiae, Sigma G5003). Kind of test: p-nitrophenol release at […] nm, initial PNPG varied. The settings on record: no inhibitor; PBS pH 7.4, 37 °C; error is SE.

Turning to `C[C@@H]1O[C@H](O[C@@H]2[C@@H](O)[C@H](O)[C@@H](COc3ccc(-c4oc5cc(O)cc(O)c5c(=O)c4O)cc3O)O[C@H]2O)[C@H](O)[C@H](O)[C@H]1O` [compound 4, quercetin-4’-O-(2-O-β-rhamno-pyranosyl-6-β-glucopyranoside)], the Ki in test [1] (competitive in table, non-competitive in abstract) is given as 3.92 (1.48). Further, the IC50 in test [2] was determined as 9.66 µM.

As for `O=[N+]([O-])c1ccc(O[C@H]2O[C@H](CO)[C@@H](O)[C@H](O)[C@H]2O)cc1` [p-Nitrophenyl-α-D-glucopyranoside], the Michaelis constant (Km) – broadly, the substrate concentration at which the rate is half of its maximum – in test [3] turned out to be 986 µM.

With `C[C@@H]1O[C@H](OC[C@H]2O[C@@H](Oc3c(-c4ccc(O)c(O)c4)oc4cc(O)cc(O)c4c3=O)[C@H](O[C@H]3O[C@@H](C)[C@H](O)[C@@H](O)[C@H]3O)[C@@H](O)[C@@H]2O)[C@H](O)[C@H](O)[C@H]1O` [compound 5, quercetin-3-O-(2,6-di-O-β,β-rhamno-pyranosyl-β-glucopyranoside)], in test [1] (non-competitive in table, competitive in abstract), the Ki is 12.29(1.58). Moreover, the IC50 in test [2] came to 16.9 µM.

Consider `C[C@@H]1O[C@@H](OC[C@H]2O[C@@H](Oc3c(-c4ccc(O)cc4)oc4cc(O)cc(O)c4c3=O)[C@H](O)[C@@H](O)[C@@H]2O)[C@H](O)[C@H](O)[C@H]1O` [compound 1, Nicotiflorin], for which the IC50 in test [2] is 159 µM.

(Values after paper PMC6930599, “Novel Flavonoid Glycosides of Quercetin from Leaves and Flowers of Gaiadendron punctatum G.Don. (Violeta de Campo), used by the Saraguro Community in Southern Ecuador, Inhibit α-Glucosidase Enzyme” (Molecules, 2019).)
